Assay results taken from ChEMBL document CHEMBL5729586, “Inhibitors of LRRK2 kinase” (2023).

Biological target: Leucine-rich repeat serine/threonine-protein kinase 2 (Homo sapiens, UniProt Q5S007)
Assay: LRRK2 Enzymatic Assay: LRRKtide substrate (peptide sequence RLGRDKYKTLRQIRQ, derived from human ezrin [amino acids 561-573], moesin [amino acids 539-553] and radixin [amino acids 558-570], obtained from SignalChem, catalogue #L10-58, reconstituted in 20 mM Tris-HCl at pH 7.5 to a final concentration of 1 mg/mL, assay concentration 20 μM) and recombinant human LRRK2 (catalytic domain only [amino acids 970-2527], GST-tagged, expressed in insect cells, obtained from ThermoFisher Scientific, catalogue #PV4874, 0.35 mg/mL, assay concentration 30 nM) were mixed in assay buffer (20 mM Hepes pH 7.5, 10 mM MgCl, 1 mM EGTA, 0.02% Brij35, 0.02 mg/ml BSA, 0.1 mM NaVO, 2 mM DTT, 1% DMSO). Compounds of interest (in DMSO, serial 3-fold dilution from 10 μM to 0.5 nM) or control (1% DMSO) were dispensed into the kinase reaction mixture by Acoustic technology (Echo550; nanoliter range). After incubation at room temperature for 20 minutes, the kinase reaction was initiated by addition of [P]-ATP (Specific activity 10 μCi/μl) and the mixture was incubated at room temperature for 2 hours. The reaction was then stopped by spotting the reaction mixture on strips of phosphocellulose P81 paper. Following washing, the radioactivity of the P81 paper was measured and kinase activity data were expressed as the percent remaining kinase activity in test samples compared to vehicle (dimethyl sulfoxide) reactions.

Chain of Leucine-rich repeat serine/threonine-protein kinase 2 (Q5S007 whole entry, the tested form may be a part): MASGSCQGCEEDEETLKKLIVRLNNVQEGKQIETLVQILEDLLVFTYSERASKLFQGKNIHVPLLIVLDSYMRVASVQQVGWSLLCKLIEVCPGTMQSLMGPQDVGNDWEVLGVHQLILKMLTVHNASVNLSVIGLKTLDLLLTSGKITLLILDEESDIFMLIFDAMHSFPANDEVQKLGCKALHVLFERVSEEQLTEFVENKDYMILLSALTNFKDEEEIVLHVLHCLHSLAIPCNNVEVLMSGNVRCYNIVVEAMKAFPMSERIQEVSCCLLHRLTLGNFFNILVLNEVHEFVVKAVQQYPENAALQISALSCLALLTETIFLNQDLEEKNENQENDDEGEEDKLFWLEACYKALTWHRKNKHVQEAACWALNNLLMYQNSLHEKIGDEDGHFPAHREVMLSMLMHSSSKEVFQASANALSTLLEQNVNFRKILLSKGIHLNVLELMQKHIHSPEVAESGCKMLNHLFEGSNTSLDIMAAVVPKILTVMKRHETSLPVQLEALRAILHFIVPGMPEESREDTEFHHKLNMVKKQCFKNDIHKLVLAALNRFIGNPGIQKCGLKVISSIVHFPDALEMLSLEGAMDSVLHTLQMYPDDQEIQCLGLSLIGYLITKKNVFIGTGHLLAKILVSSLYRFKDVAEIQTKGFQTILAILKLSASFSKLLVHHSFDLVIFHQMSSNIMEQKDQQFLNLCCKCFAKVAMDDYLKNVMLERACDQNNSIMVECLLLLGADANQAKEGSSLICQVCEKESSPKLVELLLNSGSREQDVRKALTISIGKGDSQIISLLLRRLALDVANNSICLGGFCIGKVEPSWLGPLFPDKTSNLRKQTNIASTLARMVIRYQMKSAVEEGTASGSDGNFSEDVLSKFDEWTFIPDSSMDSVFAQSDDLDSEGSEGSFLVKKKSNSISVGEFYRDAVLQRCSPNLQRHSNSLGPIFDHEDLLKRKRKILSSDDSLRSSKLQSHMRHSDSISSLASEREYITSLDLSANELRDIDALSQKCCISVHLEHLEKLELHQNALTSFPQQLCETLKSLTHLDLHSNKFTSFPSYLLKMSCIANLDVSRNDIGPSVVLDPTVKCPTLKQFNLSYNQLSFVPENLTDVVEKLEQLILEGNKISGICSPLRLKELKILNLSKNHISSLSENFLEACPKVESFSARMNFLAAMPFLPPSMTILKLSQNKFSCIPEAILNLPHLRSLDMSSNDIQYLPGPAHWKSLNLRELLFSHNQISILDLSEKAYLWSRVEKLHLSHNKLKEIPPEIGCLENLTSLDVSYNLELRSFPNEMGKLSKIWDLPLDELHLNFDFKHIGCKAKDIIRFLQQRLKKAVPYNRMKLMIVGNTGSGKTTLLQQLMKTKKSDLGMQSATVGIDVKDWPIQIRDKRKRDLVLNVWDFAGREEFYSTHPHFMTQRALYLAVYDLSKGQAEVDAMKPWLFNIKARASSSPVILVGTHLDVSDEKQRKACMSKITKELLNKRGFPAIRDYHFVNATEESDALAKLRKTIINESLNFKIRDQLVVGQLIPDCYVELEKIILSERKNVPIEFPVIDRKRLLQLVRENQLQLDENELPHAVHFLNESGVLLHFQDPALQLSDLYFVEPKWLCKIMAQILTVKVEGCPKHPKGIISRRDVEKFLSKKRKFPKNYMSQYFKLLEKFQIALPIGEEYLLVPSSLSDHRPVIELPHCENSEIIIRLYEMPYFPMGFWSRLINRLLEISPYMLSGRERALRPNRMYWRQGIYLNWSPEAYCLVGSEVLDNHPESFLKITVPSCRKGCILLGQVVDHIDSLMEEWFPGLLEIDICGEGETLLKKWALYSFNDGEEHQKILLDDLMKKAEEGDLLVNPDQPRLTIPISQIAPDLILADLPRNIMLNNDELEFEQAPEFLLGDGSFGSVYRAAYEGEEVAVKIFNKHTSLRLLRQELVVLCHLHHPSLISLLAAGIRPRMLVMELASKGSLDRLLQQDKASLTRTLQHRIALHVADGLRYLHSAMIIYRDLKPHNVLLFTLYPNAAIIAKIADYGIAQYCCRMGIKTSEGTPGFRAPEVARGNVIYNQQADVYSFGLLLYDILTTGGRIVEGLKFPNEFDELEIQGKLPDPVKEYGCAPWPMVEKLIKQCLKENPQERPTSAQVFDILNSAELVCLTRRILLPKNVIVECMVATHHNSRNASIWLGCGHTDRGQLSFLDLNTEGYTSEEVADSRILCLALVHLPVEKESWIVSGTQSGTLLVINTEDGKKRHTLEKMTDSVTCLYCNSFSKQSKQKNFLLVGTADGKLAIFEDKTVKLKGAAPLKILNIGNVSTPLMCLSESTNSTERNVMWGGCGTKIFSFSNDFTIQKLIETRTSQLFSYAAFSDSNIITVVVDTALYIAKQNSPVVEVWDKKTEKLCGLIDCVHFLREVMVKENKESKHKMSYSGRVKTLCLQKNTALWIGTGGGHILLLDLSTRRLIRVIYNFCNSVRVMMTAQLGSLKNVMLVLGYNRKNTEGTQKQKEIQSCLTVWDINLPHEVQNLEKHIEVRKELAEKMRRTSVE

| IC50 [nM] | Structure (SMILES) |
| --- | --- |
| > 400 | CC(N[C@H]1CC[C@H](COc2ccnc(Nc3ccc(N4CCOCC4)cc3)n2)CC1)C(F)(F)F (stereo partly drawn) |
| < 50 | CN[C@H]1CC[C@H](COc2nc(Nc3cnn(C(C)C)c3)ncc2Cl)CC1 |
| < 50 | CC(=O)N[C@H]1CC[C@H](COc2nc(Nc3cnn(CCO)c3)ncc2F)CC1 |
| < 50 | Cc1nn(C(C)(C)C#N)cc1Nc1ncc(F)c(OCC2CCNCC2(F)F)n1 (stereo not drawn) |
| < 50 | CN[C@H]1CC[C@H](COc2nc(Nc3cn(C(C)(C)C#N)nc3C)ncc2C2CC2)CC1 |
| < 50 | CC(=O)N[C@H]1CC[C@H](COc2nc(Nc3ccc(N4C[C@@H](C)O[C@@H](C)C4)cc3)ncc2C)CC1 |
| < 50 | CC(=O)N[C@H]1CC[C@@H](COc2nc(Nc3ccc(N4C[C@@H](C)O[C@@H](C)C4)cc3)ncc2F)C1 |

| Structure (SMILES) | IC50 [nM] |
| --- | --- |
| FC(F)CN[C@H]1CC[C@H](COc2nc(Nc3ccc(N4CCOCC4)cc3)ncc2Cl)CC1 | < 50 |
